Data from PubChem BioAssay (NCI).
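Where inhibition never reached the appropriate level, the endpoint shown equals the highest concentration tested. Otherwise, values were interpolated linearly from a five-concentration, 48-hour dose response in 96-well plates. The concentration for full growth arrest is given as TGI.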

How the values were obtained:
Test in all cases: NCI anticancer screen, dose series, 48 h
TK-10 renal = tested on: TK-10 renal
SF-268 CNS = tested on: SF-268 CNS
HCT-15 colon = tested on: HCT-15 colon
RXF 393 renal = tested on: RXF 393 renal
KM12 colon = tested on: KM12 colon
HOP-62 NSCLC = tested on: HOP-62 NSCLC
SN12C renal = tested on: SN12C renal
HOP-92 NSCLC = tested on: HOP-92 NSCLC
LOX IMVI melanoma = tested on: LOX IMVI melanoma
CAKI-1 renal = tested on: CAKI-1 renal
KM20L2 colon = tested on: KM20L2 colon
SR leukemia = tested on: SR leukemia
RPMI-8226 leukemia = tested on: RPMI-8226 leukemia
MALME-3M melanoma = tested on: MALME-3M melanoma
DLD-1 colon = tested on: DLD-1 colon
K-562 leukemia = tested on: K-562 leukemia
XF 498 CNS = tested on: XF 498 CNS
A549 NSCLC = tested on: A549 NSCLC
OVCAR-4 ovarian = tested on: OVCAR-4 ovarian
HCC-2998 colon = tested on: HCC-2998 colon
ACHN renal = tested on: ACHN renal
A498 renal = tested on: A498 renal
SNB-19 CNS = tested on: SNB-19 CNS
COLO 205 colon = tested on: COLO 205 colon
DMS 114 small cell lung = tested on: DMS 114 small cell lung
U251 CNS = tested on: U251 CNS
M14 melanoma = tested on: M14 melanoma
HT29 colon = tested on: HT29 colon
RXF-631 renal = tested on: RXF-631 renal
IGROV1 ovarian = tested on: IGROV1 ovarian
SK-MEL-28 melanoma = tested on: SK-MEL-28 melanoma
OVCAR-8 ovarian = tested on: OVCAR-8 ovarian
HL-60(TB) leukemia = tested on: HL-60(TB) leukemia
SF-539 CNS = tested on: SF-539 CNS
HCT-116 colon = tested on: HCT-116 colon
SNB-75 CNS = tested on: SNB-75 CNS
OVCAR-5 ovarian = tested on: OVCAR-5 ovarian
NCI-H226 lung = tested on: NCI-H226 lung
LXFL 529 NSCLC = tested on: LXFL 529 NSCLC
DMS 273 small cell lung = tested on: DMS 273 small cell lung
NCI-H23 lung = tested on: NCI-H23 lung
UACC-62 melanoma = tested on: UACC-62 melanoma
SW-620 colon = tested on: SW-620 colon
UACC-257 melanoma = tested on: UACC-257 melanoma
CCRF-CEM leukemia = tested on: CCRF-CEM leukemia
SK-MEL-5 melanoma = tested on: SK-MEL-5 melanoma
HOP-18 NSCLC = tested on: HOP-18 NSCLC
UO-31 renal = tested on: UO-31 renal
EKVX NSCLC = tested on: EKVX NSCLC
SK-OV-3 ovarian = tested on: SK-OV-3 ovarian
NCI-H522 lung = tested on: NCI-H522 lung
SK-MEL-2 melanoma = tested on: SK-MEL-2 melanoma
SF-295 CNS = tested on: SF-295 CNS
OVCAR-3 ovarian = tested on: OVCAR-3 ovarian
M19-MEL melanoma = tested on: M19-MEL melanoma
MOLT-4 leukemia = tested on: MOLT-4 leukemia
786-0 renal = tested on: 786-0 renal
NCI-H460 lung = tested on: NCI-H460 lung
SNB-78 CNS = tested on: SNB-78 CNS

Measured: TGI

OCC(O)COc1ccc(Br)cc1 (stereo not given)
not listed: M19-MEL melanoma | MOLT-4 leukemia | 786-0 renal | NCI-H460 lung | SNB-78 CNS
> 100 µM: all other assays above

C=CCN1C(=O)CS/C1=N\NC(=O)c1c(C)nc2sccn12
not listed: OVCAR-4 ovarian | A498 renal | M14 melanoma | SNB-75 CNS | UO-31 renal | SNB-78 CNS
> 100 µM: all other assays above

CS(=O)(=O)NNS(=O)(=O)c1ccc(Br)cc1
not listed: KM12 colon | SN12C renal | SR leukemia | RXF-631 renal | SF-295 CNS | OVCAR-3 ovarian | MOLT-4 leukemia
> 100 µM: all other assays above

O=c1[nH]cnc2c1nnn2CCCn1nnc2c(=O)[nH]cnc21
not listed: MALME-3M melanoma | RXF-631 renal | SNB-75 CNS
> 100 µM: all other assays above
